Source: the supplement of paper PMC10307832

Columns and labels:
Assay in all cases: relative viability (nuclei count vs DMSO), 5 days (fraction); higher = more cells survive
AT9283 + Phenformin = compound: O=C(Nc1c[nH]nc1-c1nc2ccc(CN3CCOCC3)cc2[nH]1)NC1CC1 [AT9283] + N=C(N)NC(=N)NCCc1ccccc1 [Phenformin] (partner 250 µM)
Summary of the method: (§1)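 Relative viability is defined as nuclei in treated wells over nuclei in vehicle wells. Duplicate plates were run and medians reported. Lung cancer cell lines in 1536-well plates were dosed by pin tool one day after seeding, with one drug or with a fixed anchor-drug dose plus five library-drug doses (not always all listed) in √10 steps, and nuclei were counted after 5 days.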

AT9283 + Lapatinib = compound: O=C(Nc1c[nH]nc1-c1nc2ccc(CN3CCOCC3)cc2[nH]1)NC1CC1 [AT9283] + CS(=O)(=O)CCNCc1ccc(-c2ccc3ncnc(Nc4ccc(OCc5cccc(F)c5)c(Cl)c4)c3c2)o1 [Lapatinib] (partner 2 µM)
Summary of the method: as §1

AT9283 + Palbociclib = compound: O=C(Nc1c[nH]nc1-c1nc2ccc(CN3CCOCC3)cc2[nH]1)NC1CC1 [AT9283] + CC(=O)c1c(C)c2cnc(Nc3ccc(N4CCNCC4)cn3)nc2n(C2CCCC2)c1=O [Palbociclib] (partner 0.5 µM)
Summary of the method: as §1

Erlotinib + Pictilisib = compound: C#Cc1cccc(Nc2ncnc3cc(OCCOC)c(OCCOC)cc23)c1 [Erlotinib] + CS(=O)(=O)N1CCN(Cc2cc3nc(-c4cccc5[nH]ncc45)nc(N4CCOCC4)c3s2)CC1 [Pictilisib] (partner 1 µM)
Summary of the method: as §1

Erlotinib + Crizotinib = compound: C#Cc1cccc(Nc2ncnc3cc(OCCOC)c(OCCOC)cc23)c1 [Erlotinib] + C[C@@H](Oc1cc(-c2cnn(C3CCNCC3)c2)cnc1N)c1c(Cl)ccc(F)c1Cl [Crizotinib] (partner 1 µM)
Summary of the method: as §1

| Cell Line | relative viability (AT9283 + Phenformin; first compound 0.003 µM) | relative viability (AT9283 + Phenformin; first compound 0.03 µM) | relative viability (AT9283 + Phenformin; first compound 0.09487 µM) | relative viability (AT9283 + Phenformin; first compound 0.3 µM) | relative viability (AT9283 + Lapatinib; first compound 0.003 µM) | relative viability (AT9283 + Lapatinib; first compound 0.03 µM) | relative viability (AT9283 + Lapatinib; first compound 0.09487 µM) | relative viability (AT9283 + Lapatinib; first compound 0.3 µM) | relative viability (AT9283 + Palbociclib; first compound 0.003 µM) | relative viability (AT9283 + Palbociclib; first compound 0.03 µM) | relative viability (AT9283 + Palbociclib; first compound 0.09487 µM) | relative viability (AT9283 + Palbociclib; first compound 0.3 µM) | relative viability (Erlotinib + Pictilisib; first compound 0.02 µM) | relative viability (Erlotinib + Pictilisib; first compound 0.2 µM) | relative viability (Erlotinib + Pictilisib; first compound 0.6325 µM) | relative viability (Erlotinib + Pictilisib; first compound 2 µM) | relative viability (Erlotinib + Crizotinib; first compound 0.02 µM) | relative viability (Erlotinib + Crizotinib; first compound 0.2 µM) | relative viability (Erlotinib + Crizotinib; first compound 0.6325 µM) | relative viability (Erlotinib + Crizotinib; first compound 2 µM) |
| --- | --- | --- | --- | --- | --- | --- | --- | --- | --- | --- | --- | --- | --- | --- | --- | --- | --- | --- | --- | --- |
| A-427 | 0.334 | 0.178 | 0.133 | 0.145 | 0.936 | 0.897 | 0.671 | 0.219 | 0.523 | 0.39 | 0.299 | 0.3 | 0.826 | 0.682 | 0.829 | 0.76 | 0.966 | 1.03 | 0.887 | 0.838 |
| NCI-H460 | 0.517 | 0.508 | 0.0947 | 0.0363 | 1.05 | 0.0247 | 0.0158 | 0.0301 | 0.146 | 0.191 | 0.0941 | 0.0475 | 0.351 | 0.335 | 0.412 | 0.353 | 1.08 | 0.763 | 1.26 | 0.74 |
| NCI-H1734 | 0.334 | 0.278 | 0.243 | 0.203 | 0.988 | 0.687 | 0.291 | 0.249 | 0.336 | 0.281 | 0.227 | 0.233 | 0.494 | 0.474 | 0.542 | – | 0.644 | 0.653 | 0.753 | 0.654 |
| NCI-H2009 | 0.525 | 0.384 | 0.309 | 0.145 | 1.01 | 0.337 | 0.31 | 0.305 | 0.235 | 0.174 | 0.0777 | 0.032 | 0.836 | 0.763 | 0.943 | 0.732 | 1.02 | 1.07 | 1.15 | – |
| NCI-H1993 | 0.474 | 0.496 | 0.431 | 0.408 | 0.813 | 0.672 | 0.631 | 0.632 | 0.597 | 0.665 | 0.534 | 0.34 | 0.807 | 0.745 | 0.946 | 0.901 | 0.816 | 0.646 | 0.854 | 0.713 |
